What was measured:
Assay type in all cases: in vivo
[1] = system: Beet Armyworm (Spodoptera exigua); experiment: Bioassays on BAW, 128-well diet tray assay; settings: Spodoptera exigua; for mortality at 50 µg/cm2: 168 h, 50 μg/cm^2 on artificial diet, second instar larvae, five to seven days, read-out: BAW % Control (or Mortality) rating
[2] = system: Cabbage Looper (Trichoplusia ni); experiment: Bioassays on CL, 128-well diet tray assay; settings: Trichoplusia ni; for mortality at 50 µg/cm2: 168 h, 50 μg/cm^2 on artificial diet, second instar larvae, five to seven days, read-out: CL % Control (or Mortality) rating
Summary of the method: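 Second-instar larvae (1–5 per well) were fed diet surface-treated with 50 μg/cm^2 compound, eight wells each. After five to seven days at 25° C. under a 14:10 photoperiod, mortality was scored per well and the eight wells averaged.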

[3] = system: Yellow Fever Mosquito (Aedes aegypti); experiment: Bioassays on Yellow Fever Mosquito larvae, 96-well plate; settings: from 4000 ppm DMSO master plate, about 1 day-old larvae, 3 days
Description: Master plates containing 400 μg of a molecule dissolved in 100 μL of dimethyl sulfoxide (DMSO) (equivalent to a 4000 ppm solution) are used. A master plate of assembled molecules contains 15 μL per well. To this plate, 135 μL of a 90:10 water:acetone mixture is added to each well. A robot (Biomek® NXP Laboratory Automation Workstation) is programmed to dispense 15 μL aspirations from the master plate into an empty 96-well shallow plate (“daughter” plate). There are 6 reps (“daughter” plates) created per master. The created daughter plates are then immediately infested with YFM larvae.
The day before plates are to be treated, mosquito eggs are placed in Millipore water containing liver powder to begin hatching (4 g. into 400 mL). After the daughter plates are created using the robot, they are infested with 220 μL of the liver powder/larval mosquito mixture (about 1 day-old larvae). After plates are infested with mosquito larvae, a non-evaporative lid is used to cover the plate to reduce drying. Plates are held at room temperature for 3 days prior to grading. After 3 days, each well is observed and scored based on mortality. The results are indicated in the table entitled “Table ABC: Biological Results” (See Table Section). AGRICULTURALLY ACCEPTABLE ACID ADDITION SALTS, SALT DERIVATIVES, SOLVATES, ESTER DERIVATIVES, POLYMORPHS, ISOTOPES, AND RADIONUCLIDES

SMILES | mortality at 50 µg/cm2 [1] [%] | mortality at 50 µg/cm2 [2] [%] | YFM % Control (or Mortality) rating [3] | mortality at 0.05 µg/cm2 ([1]; 0.05 μg/cm^2, read-out: BAW Percent control (or mortality)) [%] | mortality at 0.5 µg/cm2 ([1]; 0.5 μg/cm^2, read-out: BAW Percent control (or mortality)) [%] | mortality at 5 µg/cm2 ([1]; 5 μg/cm^2, read-out: BAW Percent control (or mortality)) [%] | mortality at 0.05 µg/cm2 ([2]; 0.05 μg/cm^2, read-out: CL Percent control (or mortality)) [%] | mortality at 0.5 µg/cm2 ([2]; 0.5 μg/cm^2, read-out: CL Percent control (or mortality)) [%] | mortality at 5 µg/cm2 ([2]; 5 μg/cm^2, read-out: CL Percent control (or mortality)) [%]
Cc1cc(/C=C/C(c2cc(Cl)c(Cl)c(Cl)c2)C(F)(F)F)cc(F)c1C(=O)N[C@H](C)C[S+]([O-])CC(F)(F)F (stereo partly drawn) [F99, 2-Fluoro-6-methyl-4-((E)-4,4,4-trifluoro-3-(3,4,5-trichlorophenyl)but-1-en-1-yl)-N-((2R)-1-((2,2,2-trifluoroethyl)sulfinyl)propan-2-yl)benzamide] | 50 to 100 | 50 to 100 | A (80-100) |  |  |  |  |  | 
C[C@H](C[S+]([O-])CC(F)(F)F)NC(=O)c1ccc(/C=C/C(c2cc(Br)cc(Br)c2)C(F)(F)F)cc1Cl (stereo partly drawn) [F72, 2-Chloro-4-((E)-3-(3,5-dibromophenyl)-4,4,4-trifluorobut-1-en-1-yl)-N-((2R)-1-((2,2,2-trifluoroethyl)sulfinyl)propan-2-yl)benzamide] | 50 to 100 | 50 to 100 | A (80-100) |  |  |  |  |  | 
C=CC[S+]([O-])C[C@@H](C)NC(=O)c1ccc(/C=C/C(c2cc(Cl)c(Cl)c(Cl)c2)C(F)(F)F)cc1C(F)(F)F (stereo partly drawn) [F103, N-((2R)-1-(Allylsulfinyl)propan-2-yl)-4-((E)-4,4,4-trifluoro-3-(3,4,5-trichlorophenyl)but-1-en-1-yl)-2-(trifluoromethyl)benzamide] | 50 to 100 | 50 to 100 | A (80-100) |  |  |  |  |  | 
C[C@H](CS(=O)(=O)CC(F)(F)F)NC(=O)c1ccc(/C=C/C(c2cc(Cl)c(Cl)c(Cl)c2)C(F)(F)F)cc1C(F)(F)F (stereo partly drawn) [F24, 4-((E)-4,4,4-Trifluoro-3-(3,4,5-trichlorophenyl)but-1-en-1-yl)-N—((R)-1-((2,2,2-trifluoroethyl)sulfonyl)propan-2-yl)-2-(trifluoromethyl)benzamide] | 50 to 100 | 50 to 100 | A (80-100) | 100 | 100 | 100 | 100 | 100 | 100
C[C@H](CS(=O)(=O)CC(F)(F)F)NC(=O)c1ccc(/C=C/C(c2cc(Br)cc(Br)c2)C(F)(F)F)cc1C(F)(F)F (stereo partly drawn) [F61, 4-((E)-3-(3,5-Dibromophenyl)-4,4,4-trifluorobut-1-en-1-yl)-N—((R)-1-((2,2,2-trifluoroethyl)sulfonyl)propan-2-yl)-2-(trifluoromethyl)benzamide] | 50 to 100 | 50 to 100 | A (80-100) |  |  |  |  |  | 
C[C@H](CSCC(F)(F)F)NC(=O)c1ccc(/C=C/C(c2cc(Cl)cc(Cl)c2)C(F)(F)F)cc1Cl (stereo partly drawn) [F104, 2-Chloro-4-((E)-3-(3,5-dichlorophenyl)-4,4,4-trifluorobut-1-en-1-yl)-N—((R)-1-((2,2,2-trifluoroethyl)thio)propan-2-yl)benzamide] | 50 to 100 | 50 to 100 | A (80-100) |  |  |  |  |  | 
CCCSC[C@@H](C)NC(=O)c1ccc(/C=C/C(c2cc(Cl)c(Cl)c(Cl)c2)C(F)(F)F)cc1C(F)(F)F (stereo partly drawn) [F70, N—((R)-1-(Propylthio)propan-2-yl)-4-((E)-4,4,4-trifluoro-3-(3,4,5-trichlorophenyl)but-1-en-1-yl)-2-(trifluoromethyl)benzamide] | 50 to 100 | 50 to 100 | A (80-100) |  |  |  |  |  | 
C[C@H](CS(=O)(=O)CC(F)(F)F)NC(=O)c1ccc(/C=C/C(c2cc(Cl)cc(Cl)c2)C(F)(F)F)cc1C(F)(F)F (stereo partly drawn) [F93, 4-((E)-3-(3,5-Dichlorophenyl)-4,4,4-trifluorobut-1-en-1-yl)-N—((R)-1-((2,2,2-trifluoroethyl)sulfonyl)propan-2-yl)-2-(trifluoromethyl)benzamide] | 50 to 100 | 50 to 100 | A (80-100) |  |  |  |  |  | 
C[C@H](CS(=O)(=O)NCC(F)(F)F)NC(=O)c1ccc(/C=C/C(c2cc(Cl)c(Cl)c(Cl)c2)C(F)(F)F)cc1C(F)(F)F (stereo partly drawn) [F45, 4-((E)-4,4,4-Trifluoro-3-(3,4,5-trichorophenyl)but-1-en-1-yl)-N—((R)-1-(N-(2,2,2-trifluoroethyl)sulfamoyl)propan-2-yl)-2-(trifluoromethyl)benzamide] | 50 to 100 | 50 to 100 | A (80-100) |  |  |  |  |  | 
CC[C@H](CS(=O)(=O)CCC(F)(F)F)NC(=O)c1ccc(/C=C/C(c2cc(Cl)c(Cl)c(Cl)c2)C(F)(F)F)cc1C(F)(F)F (stereo partly drawn) [F21, 4-((E)-4,4,4-Trifluoro-3-(3,4,5-trichlorophenyl)but-1-en-1-yl)-2-(trifluoromethyl)-N—((R)-1-((3,3,3-trifluoropropyl)sulfonyl)butan-2-yl)benzamide] | 50 to 100 | 50 to 100 | A (80-100) |  |  |  |  |  | 
Cc1cc(/C=C/C(c2cc(Cl)cc(Cl)c2)C(F)(F)F)ccc1C(=O)N[C@H](C)C[S+]([O-])CC(F)(F)F (stereo partly drawn) [F91, 4-((E)-3-(3,5-Dichlorophenyl)-4,4,4-trifluorobut-1-en-1-yl)-2-methyl-N-((2R)-1-((2,2,2-trifluoroethyl)sulfinyl)propan-2-yl)benzamide] | 50 to 100 | 50 to 100 | A (80-100) |  |  |  |  |  | 
CC[C@H](CSCC(F)(F)F)NC(=O)c1ccc(/C=C/C(c2cc(Cl)c(Cl)c(Cl)c2)C(F)(F)F)cc1C(F)(F)F (stereo partly drawn) [F12, 4-((E)-4,4,4-Trifluoro-3-(3,4,5-trichlorophenyl)but-1-en-1-yl)-N—((R)-1-((2,2,2-trifluoroethyl)thio)butan-2-yl)-2-(trifluoromethyl)benzamide] | 50 to 100 | 50 to 100 | A (80-100) |  |  |  |  |  | 
C[C@H](CSCC(F)(F)F)NC(=O)c1ccc(/C=C/C(c2cc(Br)cc(Br)c2)C(F)(F)F)cc1Cl (stereo partly drawn) [F64, 2-Chloro-4-((E)-3-(3,5-dibromophenyl)-4,4,4-trifluorobut-1-en-1-yl)-N—((R)-1-((2,2,2-trifluoroethyl)thio)propan-2-yl)benzamide] | 50 to 100 | 50 to 100 | A (80-100) |  |  |  |  |  | 
Cc1cc(/C=C/C(c2cc(Br)cc(Br)c2)C(F)(F)F)ccc1C(=O)N[C@H](C)CS(=O)(=O)CC(F)(F)F (stereo partly drawn) [F66, 4-((E)-3-(3,5-Dibromophenyl)-4,4,4-trifluorobut-1-en-1-yl)-2-methyl-N—((R)-1-((2,2,2-trifluoroethyl)sulfonyl)propan-2-yl)benzamide] | 50 to 100 | 50 to 100 | A (80-100) |  |  |  |  |  | 
CSCC[C@@H](NC(=O)c1ccc(/C=C/C(c2cc(Cl)c(Cl)c(Cl)c2)C(F)(F)F)cc1C(F)(F)F)C(=O)NCC(F)(F)F (stereo partly drawn) [F28, N—((R)-4-(Methylthio)-1-oxo-1-((2,2,2-trifluoroethyl)amino)butan-2-yl)-4-((E)-4,4,4-trifluoro-3-(3,4,5-trichlorophenyl)but-1-en-1-yl)-2-(trifluoromethyl)benzamide] | 50 to 100 | 50 to 100 | A (80-100) |  |  |  |  |  | 
O=C(NCC[S+]([O-])Cc1ccccc1)c1ccc(/C=C/C(c2cc(Cl)c(Cl)c(Cl)c2)C(F)(F)F)cc1Br (stereo not drawn) [F2, (E)-N-(2-(Benzylsulfinyl)ethyl)-2-bromo-4-(4,4,4-trifluoro-3-(3,4,5-trichlorophenyl)but-1-en-1-yl)benzamide] | 50 to 100 | 50 to 100 | A (80-100) |  |  |  |  |  | 
